Measurements: US12441704B2, “Compounds active towards nuclear receptors” (NUEVOLUTION A/S, priority 2019, dated 2025)
Read-outs that look alike come from different tables or passages of the source.

Key:
[1] = system: IL-17A secretion in activated PBMCs; test: IL-17A secretion in activated PBMCs; type: cell-based, human; settings: for IC50: human PBMCs stimulated with CD3/CD28 Dynabeads for 48 h, absolute IC50; for inhibition at 10 µM: human PBMCs stimulated with CD3/CD28 Dynabeads
Protocol: Heparin-treated whole blood from healthy human volunteers was supplied from Hospital de Sant Pau (Barcelona) under the approval of the local ethical review board for human studies (Hospital de Sant Pau, Barcelona, Spain). Human peripheral blood mononuclear cells (PBMCs) were isolated from healthy human volunteers by density gradient centrifugation using the Ficoll-Paque (GE Healthcare). […] Cells were seeded in 384-well plate (DiscoverX), at 40,000 cells per well and cultured 2 h at 37° C. and 5% CO2.
Dose-response curves with compounds were prepared using a 5-fold serial dilution (10 concentrations) in 100% DMSO and further diluted 100-fold in culture medium. Compound solutions (5 μL) were added to the plate containing cells (final DMSO concentration of 0.1%) and incubated for 30 min. Then, cells were stimulated with CD3/CD28 Dynabeads (ThermoFisher, at a bead-to-cell ratio of 1:1) for 48 h at 37° C. and 5% CO2.
IL-17A levels in supernatant were determined by immunoassay using hIL17A QBeads (Intellicyt) and by fluorescence analysis in iQue flow cytometer following the manufacturer's instructions. Inhibition of IL-17A secretion was calculated using the following formula: inhibition=100*[1−[(x−mean basal condition)/(mean top condition−mean basal condition)]]. Activated DMSO-treated cells were used as top condition and activated GNE09461 (10 μM)-treated cells as basal condition.

[2] = target: T1, RORγ ligand-binding domain fused to Gal4 (Homo sapiens, UniProt P51449); test: RORγ Reporter Assay (Gal4); type: cell-based
T1 construct: Gal4 (galactose-responsive transcription factor); expressed in transfected cells; host or cells: HEK293
T1 sequence (P51449 269-508 limits assumed): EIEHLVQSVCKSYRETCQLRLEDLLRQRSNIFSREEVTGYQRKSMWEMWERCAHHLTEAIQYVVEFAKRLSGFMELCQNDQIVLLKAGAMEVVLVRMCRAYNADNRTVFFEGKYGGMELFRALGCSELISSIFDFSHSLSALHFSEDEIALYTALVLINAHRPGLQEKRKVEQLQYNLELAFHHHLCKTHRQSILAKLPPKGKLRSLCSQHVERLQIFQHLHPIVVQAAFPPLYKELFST
Procedure, shortened: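 HEK293 cells transiently co-transfected with the Gal4-fused RORγ LBD and a UAS-luciferase reporter were exposed to compounds for 24 h at 37 °C (0.1% DMSO final). Luminescence was read, and percent reduction of RORγ activity was calculated relative to vehicle-average RLU.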

[3] = HEK293 cells co-transfected with RORγ LBD-Gal4 and luciferase reporter, 24 h incubation, absolute EC50, read-out: EC50

| SMILES | IC50 ([1]; Homo sapiens, PBMC, 48 h) [nM] | EC50 [2, 3] [nM] | inhibition at 10 µM ([1]; PBMC) [%] | EC50 ([2]; compounds of the present disclosure, value from Table 2 herein, read-out: Gal4 assay EC50) [nM] | IC50 [1] [nM] |
| --- | --- | --- | --- | --- | --- |
| NC(=O)CN1CC[C@@H](CNc2ncnc(N(Cc3ccc(C(F)(F)F)cc3)[C@H]3C[C@H](F)C3)c2F)[C@H](O)C1 (racemic) [Example A7-31, rac-2-((3R,4R)-4-(((5-fluoro-6-(((1r,3S)-3-fluorocyclobutyl)(4-(trifluoromethyl)benzyl)amino)pyrimidin-4-yl)amino)methyl)-3-hydroxypiperidin-1-yl)acetamide] | 180 | 29 |  |  |  |
| NC(=O)CN1CC[C@@H](CNc2ncnc(N(Cc3ccc(C(F)(F)F)cc3)[C@H]3C[C@@H](F)C3)c2F)[C@H](O)C1 (racemic) [Example A7-32, rac-2-((3R,4R)-4-(((5-fluoro-6-(((1s,3R)-3-fluorocyclobutyl)(4-(trifluoromethyl)benzyl)amino)pyrimidin-4-yl)amino)methyl)-3-hydroxypiperidin-1-yl)acetamide] | 220 | 34 |  |  |  |
| CC(F)(F)c1ccc(CN(c2ncnc(NC[C@@H]3CCN(CC(N)=O)C[C@H]3O)c2F)C2CC2)cc1 (racemic) [Example A7-40, rac-2-((3R,4R)-4-(((6-(cyclopropyl(4-(1,1-difluoroethyl)benzyl)amino)-5-fluoropyrimidin-4-yl)amino)methyl)-3-hydroxypiperidin-1-yl)acetamide] | 7.7 | 5.5 |  |  |  |
| NC(=O)CN1CC[C@@H](CNc2ncnc(N(Cc3ccc(OC(F)F)cc3F)C3CC3)c2F)[C@H](O)C1 (racemic) [Example A7-42, rac-2-((3R,4R)-4-(((6-(cyclopropyl(4-(difluoromethoxy)-2-fluorobenzyl)amino)-5-fluoropyrimidin-4-yl)amino)methyl)-3-hydroxypiperidin-1-yl)acetamide] | 200 | 18 |  |  |  |
| NC(=O)CN1CC[C@@H](CNc2ncnc(N(Cc3ccc(OC(F)F)cc3)C3CC3)c2F)[C@H](O)C1 (racemic) [Example A7-43, rac-2-((3R,4R)-4-(((6-(cyclopropyl(4-(difluoromethoxy)benzyl)amino)-5-fluoropyrimidin-4-yl)amino)methyl)-3-hydroxypiperidin-1-yl)acetamide] | 35 | 11 |  |  |  |
| NC(=O)CN1CC[C@@H](CNc2ncnc(N(Cc3cccc(OC(F)(F)F)c3)C3CC3)c2F)[C@H](O)C1 (racemic) [Example A7-56, rac-2-((3R,4R)-4-(((6-(cyclopropyl(3-(trifluoromethoxy)benzyl)amino)-5-fluoropyrimidin-4-yl)amino)methyl)-3-hydroxypiperidin-1-yl)acetamide] |  | 5.3 | 66 | < 100 |  |
| CCN(Cc1ccc(C(F)(F)F)cc1)c1ncnc(NC[C@@H]2CCN(C(C(N)=O)c3ccncc3)C[C@H]2O)c1F (mixture of isomers) [Example A7-62, rac-2-((3R,4R)-4-(((6-(Ethyl(4-(trifluoromethyl)benzyl)amino)-5-fluoropyrimidin-4-yl)amino)methyl)-3-hydroxypiperidin-1-yl)-2-(pyridin-4-yl)acetamide] | 7.2 | 1.8 |  |  |  |
| NC(=O)C(c1ccncc1)N1CC[C@@H](CNc2ncnc(N(Cc3ccc(C(F)(F)F)cc3)C3CC3)c2F)[C@H](O)C1 (mixture of isomers) [Example A7-63, rac-2-((3R,4R)-4-(((6-(cyclopropyl(4-(trifluoromethyl)benzyl)amino)-5-fluoropyrimidin-4-yl)amino)methyl)-3-hydroxypiperidin-1-yl)-2-(pyridin-4-yl)acetamide] | 2.3 | 3.4 |  |  |  |
| NC(=O)C(CO)N1CC[C@@H](CNc2ncnc(N(Cc3ccc(C(F)(F)F)cc3)C3CC3)c2F)[C@H](O)C1 (mixture of isomers) [Example A7-65, rac-2-((3R,4R)-4-(((6-(cyclopropyl(4-(trifluoromethyl)benzyl)amino)-5-fluoropyrimidin-4-yl)amino)methyl)-3-hydroxypiperidin-1-yl)-3-hydroxypropanamide] | 12 | 5.8 |  |  |  |
| Cn1cc(-c2ccc(CN(c3ncnc(NC[C@@H]4CCN(CC(N)=O)C[C@H]4O)c3F)C3CC3)cc2)cn1 (racemic) [Example A7-74, rac-2-((3R,4R)-4-(((6-(cyclopropyl(4-(1-methyl-1H-pyrazol-4-yl)benzyl)amino)-5-fluoropyrimidin-4-yl)amino)methyl)-3-hydroxypiperidin-1-yl)acetamide] | 23 | 12 |  |  |  |
| Cn1cc(-c2ccc(CN(c3ncnc(NC[C@@H]4CCN(CC(N)=O)C[C@H]4O)c3F)C3CC3)c(F)c2)cn1 (racemic) [Example A7-75, rac-2-((3R,4R)-4-(((6-(cyclopropyl(2-fluoro-4-(1-methyl-1H-pyrazol-4-yl)benzyl)amino)-5-fluoropyrimidin-4-yl)amino)methyl)-3-hydroxypiperidin-1-yl)acetamide] | 18 | 13 |  |  |  |
| NC(=O)CN1CC[C@@H](CNc2ncnc(N(Cc3ccc(-n4cccn4)cc3F)C3CC3)c2F)[C@H](O)C1 (racemic) [Example A7-76, rac-2-((3R,4R)-4-(((6-(cyclopropyl(2-fluoro-4-(1H-pyrazol-1-yl)benzyl)amino)-5-fluoropyrimidin-4-yl)amino)methyl)-3-hydroxypiperidin-1-yl)acetamide] | 92 | 6.6 |  |  |  |
| CCN(Cc1ccc(-n2cccn2)cc1)c1ncnc(NC[C@@H]2CCN(CC(N)=O)C[C@H]2O)c1F (racemic) [Example A7-77, rac-2-((3R,4R)-4-(((6-((4-(1H-Pyrazol-1-yl)benzyl)(ethyl)amino)-5-fluoropyrimidin-4-yl)amino)methyl)-3-hydroxypiperidin-1-yl)acetamide] | 440 | 73 |  |  |  |
| CCN(Cc1ccc(C#N)cc1)c1ncnc(NC[C@@H]2CCN(CC(N)=O)C[C@H]2O)c1F (racemic) [Example A7-78, rac-2-((3R,4R)-4-(((6-((4-cyanobenzyl)(ethyl)amino)-5-fluoropyrimidin-4-yl)amino)methyl)-3-hydroxypiperidin-1-yl)acetamide] |  | 65 | 70 |  |  |
| CC(C)(C(N)=O)N1CC[C@@H](CNc2ncnc(N(Cc3ccc(C(F)(F)F)cc3)C3CC3)c2F)[C@H](O)C1 (relative stereo) [Example A7-55, rel-2-((3R,4R)-4-(((6-(cyclopropyl(4-(trifluoromethyl)benzyl)amino)-5-fluoropyrimidin-4-yl)amino)methyl)-3-hydroxypiperidin-1-yl)-2-methylpropanamide] | 4.9 | 4.7 |  |  |  |
| CCN(Cc1ccc(C(F)(F)F)cc1)c1ncnc(NC[C@@H]2CCN([C@H](CO)C(N)=O)C[C@H]2O)c1F (relative stereo) [Example A7-66-1, rel-(R)-2-((3R,4R)-4-(((6-(ethyl(4-(trifluoromethyl)benzyl)amino)-5-fluoropyrimidin-4-yl)amino)methyl)-3-hydroxypiperidin-1-yl)-3-hydroxypropanamide OR rel-(R)-2-((3S,4S)-4-(((6-(ethyl(4-(trifluoromethyl)benzyl)amino)-5-fluoropyrimidin-4-yl)amino)methyl)-3-hydroxypiperidin-1-yl)-3-hydroxypropanamide] | 18 | 26 |  |  |  |
| CCN(Cc1ccc(C(F)(F)F)cc1)c1ncnc(NC[C@H]2CCN(C(CO)C(N)=O)C[C@@H]2O)c1F (relative stereo) [Example A7-66-2, rel-(R)-2-((3R,4R)-4-(((6-(ethyl(4-(trifluoromethyl)benzyl)amino)-5-fluoropyrimidin-4-yl)amino)methyl)-3-hydroxypiperidin-1-yl)-3-hydroxypropanamide OR rel-(R)-2-((3S,4S)-4-(((6-(ethyl(4-(trifluoromethyl)benzyl)amino)-5-fluoropyrimidin-4-yl)amino)methyl)-3-hydroxypiperidin-1-yl)-3-hydroxypropanamide] |  | 88 |  |  | 210 |
| [2H]C([2H])(C(N)=O)N1CC[C@@H](CNc2ncnc(N(Cc3ccc(C(F)(F)F)cc3)C3CC3)c2F)[C@H](O)C1 (relative stereo) [Example A7-69, rel-2-((3R,4R)-4-(((6-(cyclopropyl(4-(trifluoromethyl)benzyl)amino)-5-fluoropyrimidin-4-yl)amino)methyl)-3-hydroxypiperidin-1-yl)acetamide-2,2-d2] | 3.1 | 2.7 |  |  |  |
